For 79 compounds, RP-LC retention time results are on record in the METLIN SMRT retention time set (Domingo-Almenara et al. 2019).

This data set is described as follows: gradient 5% acetonitrile 3 min, to 50% in 2 min, to 85% in 15 min, held 3 min, 100 µL/min. The following applies: column: Zorbax Extend-C18 2.1 x 50 mm; eluents: water / acetonitrile, 0.1% formic acid. The method, boiled down: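 Retention times of pure standards were taken from adduct peaks that were selected by computer and manually inspected. Over 3 months, mixtures of ~100 molecules were run by HPLC–quadrupole time-of-flight mass spectrometry in positive and negative ionization mode. The Zorbax Extend-C18 column (2.1 × 50 mm, 1.8 μm) ran at 100 μL/min in water and acetonitrile, each containing 0.1% formic acid, with 40 μL dead volume and 900 μL dwell volume.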
For the compound `COC(=O)c1cccc(NC(=O)NC(C(=O)N2CCc3ccccc32)c2ccccc2)c1` (centres undefined), the RP-LC retention time was 1030 s.

Consider `COc1cccc(N2CCN(S(=O)(=O)c3cn(C(C)C)c4ncccc34)CC2)c1`, for which the RP-LC retention time came out at 1060 s.

In the case of `CCOC(=O)c1c(S(=O)(=O)N2CCC(C(=O)NCc3cccs3)CC2)c(C)n(C)c1C`, the RP-LC retention time worked out at 774 s.

Take `Nc1ccc(SCc2nnc(-c3cccc(F)c3)o2)cc1`: the RP-LC retention time was 784 s.

In turn, `Cc1ccccc1Nc1c(-c2cccc(Cl)c2)nc2c(C)cccn12` had an RP-LC retention time of 802 s.

In turn, `COCCC(=O)NC1CCN(c2ccc(C)c(C)c2)C1=O` (centres undefined) gave an RP-LC retention time of 688 s.

Turning to `COCCN1C(=O)[C@H]2CN(Cc3cccnc3)C[C@H]2C1=O`, the RP-LC retention time stood at 528 s.

On to `COCc1noc([C@@H]2CC(F)(F)CN2C(=O)c2nccn2C)n1`, for which the RP-LC retention time was found to be 716 s.

The compound `CCOc1nc2ccccc2nc1N1CCCC(C(=O)N2CCN(c3ccc(OC)cc3)CC2)C1` (centres undefined) displayed an RP-LC retention time of 1190 s.

In turn, `Cn1c(=O)c2cc(C(=O)Nc3ccc(F)cc3)cnc2n(-c2ccc(F)cc2)c1=O` gave an RP-LC retention time of 960 s.

The compound `CCOC(=O)CC(=O)CSc1nc2sc(C)cc2c(=O)n1C` showed an RP-LC retention time of 961 s.

For `O=c1cc(CO)oc(C(Nc2ccccn2)c2cccc(F)c2)c1O` (centres undefined), the RP-LC retention time came to 542 s.

`Cc1ccc(C)c(C(=O)N2CCCC(c3nc(CNC(=O)C4CCC4)cs3)C2)c1` (centres undefined) came in with an RP-LC retention time of 748 s.

`CCCN1C(=O)COc2ccc(-c3csc(NC(=O)c4cc(OC)c(OC)c(OC)c4)n3)cc21` displayed an RP-LC retention time of 1040 s.

In turn, `O=C(Cc1cn2cc(F)ccc2n1)Nc1ccc(F)cc1` gave an RP-LC retention time of 594 s.

On to `CSc1cccc(NC(=O)NCC(c2cccnc2)c2c[nH]c3ccccc23)c1` (centres undefined), for which the RP-LC retention time is 677 s.

Take `CN1C2CC(OC(=O)C(CO)c3ccccc3)CC1C(O)C2` (centres undefined): the RP-LC retention time is 586 s.

Consider `CCCCC(=O)Nc1nc(-c2ccc3c(c2)NC(=O)C(C)O3)cs1` (centres undefined), for which the RP-LC retention time was 863 s.

In turn, `CCCN(C)c1nccn2c(=O)n(CC(=O)Nc3ccc(F)cc3)nc12` displayed an RP-LC retention time of 806 s.

`CCc1cc(-c2csc(S(=O)(=O)NCCc3ccc(Cl)cc3)c2)on1` returned an RP-LC retention time of 1050 s.

The compound `CCn1c(=O)n(CC(=O)NCCN2CCC(C)CC2)c(=O)c2cnc(-c3ccc(Cl)cc3)nc21` came in with an RP-LC retention time of 776 s.

`Cc1ccc(-c2noc(-c3ccccc3S(=O)(=O)NCCC(C)C)n2)cc1` displayed an RP-LC retention time of 1330 s.

With `O=C1CCN(Cc2ccc3c(c2)CCO3)CCCCCCN1`, the RP-LC retention time amounted to 586 s.

Turning to `Cc1cc(C(=O)N2CCC(c3nc(-c4ccccc4)no3)C2)n[nH]1` (centres undefined), the RP-LC retention time stood at 727 s.

Turning to `O=C(Cc1cccs1)NCc1nnnn1-c1ccc(F)c(F)c1`, the RP-LC retention time was 711 s.

As for `Cn1c(=O)c2c(nc(OCCc3ccccc3)n2C)n(C)c1=O`, the RP-LC retention time is 909 s.

The compound `COc1c(C(=O)Nc2ccc3c(c2)OCO3)sc2cc(Cl)ccc12` had an RP-LC retention time of 1180 s.

`Cc1cccc(Cn2cc(C(=O)O)c3ccccc3c2=O)c1` registered an RP-LC retention time of 857 s.

Compound `CC(C)n1c(C2CCN(C(=O)Cc3cccc(Cl)c3)C2)nc2ccncc21` (centres undefined) gave an RP-LC retention time of 567 s.

Compound `CCOC(=O)c1cc(S(=O)(=O)N2CCCC2C(=O)Nc2cccc(C)n2)cn1C` (centres undefined) came in with an RP-LC retention time of 847 s.

Compound `Cc1oc(C2CCN(C(=O)C3CCN(S(=O)(=O)N4CCOCC4)CC3)CC2)nc1C(=O)N1CCCC1` displayed an RP-LC retention time of 677 s.

`CCN1C(=O)C2(CCN(S(=O)(=O)c3ccc(C(C)C)cc3)CC2)c2ccccc21` had an RP-LC retention time of 1210 s.

With `CCCc1noc(-c2ccc(-n3cnc(C(=O)NC4CCCC4)c3)nc2)n1`, the RP-LC retention time is 915 s.

`CCN1C(=O)COc2ccc(-c3nc(NC(=O)C(C)(C)C)sc3C)cc21` displayed an RP-LC retention time of 643 s.

The compound `CC1=C(c2ccc(C)cc2)S(=O)(=O)N=C1N1CCC(NC(=O)CCC(C)C)CC1` gave an RP-LC retention time of 888 s.

Turning to `COC(=O)c1cccc(NC(=O)NC(C)C(=O)N2CCc3ccccc32)c1` (centres undefined), the RP-LC retention time worked out at 792 s.

Regarding `CCN1C(=O)c2cccnc2Sc2cc(NC(=O)c3ccc(F)cc3)ccc21`, the RP-LC retention time was determined as 832 s.

As for `Cc1cccc(NS(=O)(=O)c2c(C)sc(C)c2-c2cc(C(F)(F)F)on2)c1`, the RP-LC retention time amounted to 1180 s.

Compound `Cc1ccc(-c2noc(-c3ccc(N4CCN(C5CCCCC5)CC4)nc3)n2)cc1` came in with an RP-LC retention time of 848 s.

Regarding `CCOC(=O)c1cccc(Nc2c(-c3ccc(OC)cc3)nc3cnccn23)c1`, the RP-LC retention time is 668 s.

Take `CC(C)CNC(=O)C1CCCN(c2nccn3nc(-c4ccccc4Cl)cc23)C1` (centres undefined): the RP-LC retention time turned out to be 872 s.

For the compound `Cc1ccc2ncn(C3CCN(S(=O)(=O)c4ccc(F)cc4)CC3)c(=O)c2c1`, the RP-LC retention time was 896 s.

On to `Fc1cccc(-c2noc(-c3cc(N4CCN(c5ccccn5)CC4)nc4ccccc34)n2)c1`, for which the RP-LC retention time came out at 962 s.

The compound `COc1ccc(-c2noc(C3CCCN3C(=O)Nc3ccccc3Br)n2)cc1` (centres undefined) returned an RP-LC retention time of 1070 s.

In the case of `CCn1c(=O)c(SCC(=O)NCC2CCN(Cc3ccc(C)cc3)C2)nc2ccccc21` (centres undefined), the RP-LC retention time came to 668 s.

Compound `CCOc1cc2c(cc1OCC)C1C(C(=O)NCCCN3CCCC3)c3ccccc3C(=O)N1CC2` (centres undefined) registered an RP-LC retention time of 624 s.

Compound `O=c1c2ccccc2n(Cc2nc(-c3ccccc3)no2)c(=O)n1Cc1ccco1` returned an RP-LC retention time of 1050 s.

With `CC(C)n1c(-c2cccc(C(=O)NCc3cccs3)c2)nc2cccnc21`, the RP-LC retention time stood at 787 s.

With `O=C(Nc1ccc(NC(=O)N2CCC(C(=O)NCC3CC3)CC2)cc1)NC1CCCC1`, the RP-LC retention time was 679 s.

Consider `CCOc1ccc(S(=O)(=O)N2CCC(C(=O)NCCCOC)CC2)cc1C`, for which the RP-LC retention time amounted to 789 s.

The compound `Cc1sc(-c2cc(C(F)(F)F)on2)cc1S(=O)(=O)Nc1ccc(F)cc1` registered an RP-LC retention time of 1120 s.

`CC(C)COc1cc(=O)n2c(c1C(=O)N1CCN(c3ccccn3)CC1)CCCCC2` showed an RP-LC retention time of 591 s.

`Cn1cnc(S(=O)(=O)N2CC(n3cc(C(=O)N4CCOCC4)nn3)C2)c1` returned an RP-LC retention time of 575 s.

In turn, `CCOC(=O)c1c(S(=O)(=O)N2CCC(C(=O)Nc3cc(C)cc(C)c3)CC2)c(C)n(CC)c1C` yielded an RP-LC retention time of 980 s.

As to `O=c1c2cnc3nc(-c4ccccc4)nn3c2ccn1CCc1c[nH]c2ccc(F)cc12`, the RP-LC retention time came to 941 s.

Compound `O=C(NCc1ccccc1Cl)c1c[nH]c2ncccc12` showed an RP-LC retention time of 708 s.

With `O=C(Nc1ccc(Nc2ccncc2)cc1)c1ccc([N+](=O)[O-])cc1`, the RP-LC retention time is 1250 s.

The compound `COCc1noc([C@@H]2CN(Cc3ccc(Br)o3)C[C@H]2C(N)=O)n1` came in with an RP-LC retention time of 565 s.

`Cc1nn(-c2cc(N3CCOCC3)ncn2)c(C)c1CCC(=O)N1CCN(c2ccccn2)CC1` registered an RP-LC retention time of 618 s.

`CCc1nn2c(CNC(=O)c3cccc(OC)c3)c(-c3ccccc3)nc2s1` showed an RP-LC retention time of 885 s.

Regarding `CN(C)c1ccc(CN2CCc3nc(N4CCN(c5ccccc5F)CC4)ncc3C2)cc1`, the RP-LC retention time is 807 s.

Regarding `CCCCN(C)CCCNC(=O)c1ccc2c(c1)NC(=O)C(C(C)CC)N2` (centres undefined), the RP-LC retention time worked out at 612 s.

Consider `COc1cccc(OCC2c3ccsc3CCN2C(=O)CN(C(C)=O)C2CC2)c1` (centres undefined), for which the RP-LC retention time worked out at 807 s.

In the case of `O=C(CN1CCCCC1c1nc(C2CC2)no1)Nc1cccnc1` (centres undefined), the RP-LC retention time came to 592 s.

Consider `CC(C)NC(=O)C1CCCN(S(=O)(=O)c2c[nH]c(C(=O)N3CCCCCC3)c2)C1` (centres undefined), for which the RP-LC retention time amounted to 734 s.

For the compound `Cc1ccc(C(C)NC(=O)c2cn3c(n2)COCC3)c(C)c1` (centres undefined), the RP-LC retention time worked out at 667 s.

Regarding `Cc1ccc2ncn(C3CCN(C(=O)Nc4ccccc4)CC3)c(=O)c2c1`, the RP-LC retention time was determined as 751 s.

Compound `CCn1nc(C)n2cc(S(=O)(=O)NCc3ccco3)cc2c1=O` displayed an RP-LC retention time of 779 s.

Turning to `Cc1ccc(NS(=O)(=O)c2cc(-c3[nH]ncc3C(=O)N3CCCC3)oc2C)c(Cl)c1`, the RP-LC retention time came out at 741 s.

Consider `COC(=O)c1ccc(C(=O)NCCN2CCN(c3ccc(F)cc3)CC2)cc1`, for which the RP-LC retention time is 576 s.

For the compound `O=C(NCC1CCCO1)c1ccc(CN2CCN(Cc3ccc(F)cc3)C(=O)C2=O)cc1` (centres undefined), the RP-LC retention time came to 676 s.

As for `O=C(Nc1ccc(Cl)cc1)c1cn2c(n1)CCCC2`, the RP-LC retention time is 640 s.

`O=S(=O)(c1ccc2c(c1)CCCC2)N1CCCC1c1nc(-c2ccc(F)cc2)no1` (centres undefined): the RP-LC retention time came out at 1290 s.

`Cc1ccc(S(=O)(=O)N2CCN(C(=O)c3ccccc3Cl)CC2)cc1C` returned an RP-LC retention time of 669 s.

`CCCN(C(=O)C1CCCN(c2ncnc3c2nc2n3CCCCC2)C1)c1ccc(F)cc1` (centres undefined) registered an RP-LC retention time of 930 s.

`Cc1noc2ncn(CC(=O)NCc3cccc(F)c3)c(=O)c12` gave an RP-LC retention time of 712 s.

Consider `O=C(NC1CCCC1)c1ccc2c(c1)CCN2C(=O)C1CC1`, for which the RP-LC retention time was 751 s.

`Cc1cccc(NC(=O)Cn2nc3n(c2=O)CCCCC3)c1C` gave an RP-LC retention time of 675 s.

With `Cc1noc(-c2cccc(OC3CN(C(=O)NCCc4ccccc4)C3)c2)n1`, the RP-LC retention time came out at 879 s.
